Laboratory results: patent publication US4146622A, “Aziridinyl quinone anti-transplanted tumor agents” (priority 1977, dated 1979)
Values after ≈ are worked out from the molar mass of the structure shown. Values joined by “and” are separate entries in the source; they are usually repeats but may differ in a detail not shown here. Equal values may be shown once. “Also recorded” adds a separate entry of the source. Read-outs that look alike come from different tables or passages of the source.

Key:
lymphoid leukemia L1210 [1] = details: cited from earlier work; for antitumor activity, prior testing: L1210 system, prior/literature
lymphoid leukemia L1210 [2] = test: Intraperitoneal (IP) lymphoid leukemia L1210 transplanted mouse tumor test; type: in vivo, murine; details: for OD (optimum dose) / animals alive per 6 test animals on day of termination / ILS (percentage increase in life span) / T - C (average weight change of test group minus control): Table VIII; for animals alive per 6 test animals on day of termination / survivors (number in parentheses) IP L1210: day 30; for T - C (average weight change of test group minus control): day 5; for ILS (%) IP L1210 / survivors (number in parentheses) IP L1210: Table XI; for ILS (%) IP L1210: outstanding activity; for survivors (number in parentheses) IP L1210: per 6 test animals
Source text: ^(a) Day 1-9 treatment schedule (9 injections)
^(b) Day 1,5,9 treatment schedule (3 injections)
^(c) Day 1 only treatment schedule (1 injection)
^(f) Percentage increase in life span of treated animals [(treated
survival .div. control survival) × 100%] - 100%

[3] = test system: P388 lymphocytic leukemia; test: Intraperitoneal (IP) lymphocytic leukemia P388 transplanted mouse tumor test; type: in vivo, murine; details: Table IX; for OD (optimum dose): IP P388, QD1-9; for ILS (percentage increase in life span): IP P388, QD1-9, at OD
Source text: ^b Ip tumor implantation, ip QD1-9 treatment schedule.
The L1210, P388 and B16 test systems described in Table II utilize intraperitoneal (IP) tumor implantation and IP drug treatment while the Lewis lung system employs subcutaneous tumor implantation and IP treatment.
Aqueous saline solution (0.9%) was used as the drug vehicle. Normally, five doses were employed per experiment with the top dose chosen to produce toxicity. The lower doses were 50% of each preceeding dose.
Consistent with NCI antitumor test protocols, intraperitoneal (IP) administration of the drug was employed with all five tumor systems investigated. Tumor implantation was IP in the systems designated IP leukemia L1210 and P388 as well as B16 melanoma.

B16 melanocarcinoma = test: Intraperitoneal B16 melanocarcinoma transplanted mouse tumor test; type: in vivo, murine; details: for ILS (percentage increase in life span) / OD (optimum dose): Table IX; for ILS (percentage increase in life span): B16, QD1-9, at OD; for OD (optimum dose): B16, QD1-9
lymphoid leukemia L1210 [4] = test: Intracerebral (IC) lymphoid leukemia L1210 test; type: in vivo, murine; details: for antitumor activity: IC L1210; for OD (optimum dose) / ILS (percentage increase in life span): Table X; for ILS (%) IC L1210: Table XI, outstanding activity
Source text: ^b Ic tumor implantation, ip QD1-9 treatment schedule.
The L1210, P388 and B16 test systems described in Table II utilize intraperitoneal (IP) tumor implantation and IP drug treatment while the Lewis lung system employs subcutaneous tumor implantation and IP treatment. All three CNS tumor models (Table III) use intracerebral (IC) tumor implantation and IP treatment.
Consistent with NCI antitumor test protocols, intraperitoneal (IP) administration of the drug was employed with all five tumor systems investigated. Tumor implantation was IP in the systems designated IP leukemia L1210 and P388 as well as B16 melanoma. Intracerebral (IC) tumor implantation was utilized in the IC L1210 and ependymoblastoma tumor systems.

ependymoblastoma = test: Intracerebral (IC) ependymoblastoma (EM) brain tumor test; type: in vivo, murine; details: for antitumor activity: IC ependymoblastoma (EM); for OD (optimum dose) / ILS (percentage increase in life span) / animals alive per 6 test animals on day of termination: Table X, IC ependymoblastoma; for OD (optimum dose): QD1-5; for ILS (percentage increase in life span) / animals alive per 6 test animals on day of termination: QD1-5, at OD; for animals alive per 6 test animals on day of termination / survivors (number in parentheses) EM: day 60; for survivors (number in parentheses) EM: Table XI, per 6 test animals
Source text: ^c Ic tumor implantation, ip QD1-5 treatment schedule.
^g Number of animals alive per six test animals on day of termination
of experiment (day 99 for expt 133 and day 60 for expt 136 and 144).
A third IC transplanted mouse tumor model, the ependymoblastoma system, was also studied. This system requires intracerebral implantation of a solid tumor fragment while the IC L1210 and IC P388 systems utilize IC inoculated ascites tumor fluid. All three use IP drug treatment however. […] Cures (survivors from the group of six mice on the last day of the experiment) are indicated. Experiments 136 and 144 were terminated on day 60. Since the number of cures was about the same, the differences in T/C values in these two experiments reflect differences in the life span of the two different sets of control animals. Experiment 133 was terminated on day 99 with a resulting higher activity value.
The hydrophilic dihydroxypropylamino compound (No. 39), which was curative in the IP L1210 and P388 leukemia systems, was active but gave a large spread in ILS values (53-186%). […] Again, its hydrophilic character may present transport problems in this IC tumor system.

[5] = Room temperature water solubility; type: physicochemical
Procedure: In the following examples, all melting points are uncorrected and were recorded on a Thomas-Hoover capillary melting point apparatus. Elemental analyses were performed by NIAMDD, NIH, Bethesda, Maryland. Fluoranil, ethyleneimine and 2l -methylethyleneimine were obtained commerically. […] New compounds were identified by nmr and ir spectroscopy. In the tetraamino derivatives, the methylene protons of the aziridine rings usually occurred as a singlet at δ2.0-2.2 in CDCl3 or DMSO-d6. This absorption appeared at δ2.40 (CDCl3) for compound 11. Carbonyl absorption frequencies (nujol mull) occurred in the range 1620-1640 cm^-1 for the tetraamino compounds. Satisfactory elemental analyses (+0.4% of calculated values) are indicated by elemental symbols in Table VII. Room temperature water solubilities were determined by the incremental addition (pipet) of water to a weighed amount of compound with shaking. The solubility values in Table VII must be considered as approximate.

[6] = Octanol/H2O partition coefficient (log P); type: physicochemical; details: Table VII; octanol/H2O
Source text: ^(b) Octanol/H2 O values determined by C. Hansch and M. Yamakawa

[7] = IP L1210, Day 1 only (1 injection)
[8] = IP L1210, Q4D(1,5,9) (3 injections)
[9] = water, Table VII, room temperature, approximate, read-out: Approx. H2O Sol.

## O=C1C(Cl)=C(N2CC2)C(=O)C(Cl)=C1N1CC1 [Compound 4, 2,5-dichloro-3,6-diaziridinyl-1,4-benzoquinone]
Lymphoid leukemia L1210 [1]
  antitumor activity, prior testing: inactive

## COC1=C(Br)C(=O)C(OC)=C(Br)C1=O [Compound 14, 2,5-dibromo-3,6-dimethoxy-1,4-benzoquinone]
Lymphoid leukemia L1210 [1]
  antitumor activity, prior testing: inactive

## NC1=C(Cl)C(=O)C(N)=C(Cl)C1=O [Compound 19]
Lymphoid leukemia L1210 [1]
  antitumor activity, prior testing: inactive

## CC(=O)NC1=C(Cl)C(=O)C(NC(C)=O)=C(Cl)C1=O [Compound 20, 2,5-dichloro-3,5-acetylamino-1,4-benzoquinone]
Lymphoid leukemia L1210 [1]
  antitumor activity, prior testing: inactive

## CC(=O)NC1=C(N2CC2)C(=O)C(NC(C)=O)=C(N2CC2)C1=O [Compound 27]
Lymphoid leukemia L1210 [1]
  antitumor activity, prior testing: active; also recorded: intraperitoneal (IP) leukemia L1210 activity

## COC1=C(N2CC2)C(=O)C(OC)=C(N2CC2)C1=O [Compound 28]
Lymphoid leukemia L1210 [1]
  antitumor activity, prior testing: intraperitoneal (IP) leukemia L1210 activity

## CNC1=C(N2CC2)C(=O)C(NC)=C(N2CC2)C1=O [Compound 34]
Lymphoid leukemia L1210 [2]; [7]
  OD (optimum dose): 0.7 mg/kg/injection
Lymphoid leukemia L1210 [2]; [8]
  OD (optimum dose): 0.8 mg/kg/injection and 0.4 mg/kg/injection
Lymphoid leukemia L1210 [2]; IP L1210, QD1-9 (9 injections)
  OD (optimum dose): 0.2 mg/kg/injection
Lymphoid leukemia L1210 [2]; IP L1210, QD1-9, at OD
  animals alive per 6 test animals on day of termination: 1
[3]
  OD (optimum dose): 0.2 mg/kg/injection and 0.1 mg/kg/injection
  ILS (percentage increase in life span): 95% and 69%
B16 melanocarcinoma; B16 melanoma
  antitumor activity: approached minimal reproducible activity
B16 melanocarcinoma
  ILS (percentage increase in life span): 39% and 29%
Lymphoid leukemia L1210 [4]
  antitumor activity: most active; also recorded: significant activity
  ILS (%) IC L1210: 68%
Lymphoid leukemia L1210 [4]; IC L1210, QD1-9
  OD (optimum dose): 0.4 mg/kg/injection and 0.2 mg/kg/injection
Lymphoid leukemia L1210 [4]; IC L1210, QD1-9, at OD
  ILS (percentage increase in life span): 68% and 60%
ependymoblastoma
  antitumor activity: among the most active materials; also recorded: highly active
  OD (optimum dose): 0.2 mg/kg/injection and 0.4 mg/kg/injection
  ILS (percentage increase in life span): 219% and 218%
  animals alive per 6 test animals on day of termination: 5 and 4
  survivors (number in parentheses) EM: 5
[5]; [9]
  solubility: < 100 µg/mL

## CCNC1=C(N2CC2)C(=O)C(NCC)=C(N2CC2)C1=O [Compound 35, 2,5-Diaziridinyl-3,6-bis(ethylamino)-1,4-benzoquinone]
Lymphoid leukemia L1210 [2]; IP L1210, tetraaminobenzoquinone series (Table VIII)
  antitumor activity: activity appears to peak
Lymphoid leukemia L1210 [2]; [7]
  OD (optimum dose): 1.5 mg/kg/injection
Lymphoid leukemia L1210 [2]; IP L1210, Day 1 only, at OD
  ILS (percentage increase in life span): 68% and 54%
Lymphoid leukemia L1210 [2]; [8]
  OD (optimum dose): 3.0 mg/kg/injection and 1.5 mg/kg/injection
Lymphoid leukemia L1210 [2]; IP L1210, Q4D(1,5,9), at OD
  ILS (percentage increase in life span): 75% and 57%
Lymphoid leukemia L1210 [2]; IP L1210, QD1-9 (9 injections)
  OD (optimum dose): 1.5 mg/kg/injection
Lymphoid leukemia L1210 [2]; IP L1210, QD1-9, at OD
  ILS (percentage increase in life span): 112% and 91%
  T - C (average weight change of test group minus control): -3.3 grams
  animals alive per 6 test animals on day of termination: 2 and 1
Lymphoid leukemia L1210 [2]
  ILS (%) IP L1210: 112%
  survivors (number in parentheses) IP L1210: 2
[3]
  ILS (percentage increase in life span): 160% and 103%
B16 melanocarcinoma
  OD (optimum dose): 0.4 mg/kg/injection and 0.7 mg/kg/injection
  ILS (percentage increase in life span): 26% and 24%
Lymphoid leukemia L1210 [4]; IC L1210, QD1-9
  OD (optimum dose): 3.0 mg/kg/injection
Lymphoid leukemia L1210 [4]; IC L1210, QD1-9, at OD
  ILS (percentage increase in life span): 44% and 40%
ependymoblastoma
  antitumor activity: most active
  OD (optimum dose): 1.5 mg/kg/injection
  ILS (percentage increase in life span): 218% and 187%
  animals alive per 6 test animals on day of termination: 2
  survivors (number in parentheses) EM: 2
[5]; [9]
  solubility: 500 µg/mL (≈ 1810 µM)

## NC(=O)CNC1=C(N2CC2)C(=O)C(NCC(N)=O)=C(N2CC2)C1=O [Compound 40]
Lymphoid leukemia L1210 [2]; [7]
  OD (optimum dose): 10.0 mg/kg/injection
Lymphoid leukemia L1210 [2]; IP L1210, Day 1 only, at OD
  ILS (percentage increase in life span): 21% and 15%
Lymphoid leukemia L1210 [2]; [8]
  OD (optimum dose): 8.0 mg/kg/injection
Lymphoid leukemia L1210 [2]; IP L1210, QD1-9 (9 injections)
  OD (optimum dose): 10.0 mg/kg/injection
Lymphoid leukemia L1210 [2]; IP L1210, QD1-9, at OD
  ILS (percentage increase in life span): 92% and 91%
[3]
  OD (optimum dose): 2.0 mg/kg/injection
  ILS (percentage increase in life span): 85% and 71%
B16 melanocarcinoma
  ILS (percentage increase in life span): 37% and 22%
Lymphoid leukemia L1210 [4]; IC L1210, QD1-9, at OD
  ILS (percentage increase in life span): 16%
ependymoblastoma
  OD (optimum dose): 2.0 mg/kg/injection and 1.0 mg/kg/injection
  ILS (percentage increase in life span): 64% and 50%
[5]; [9]
  solubility: 500 µg/mL (≈ 1500 µM)

## CN(C)C1=C(N2CC2)C(=O)C(N(C)C)=C(N2CC2)C1=O [Compound 41, 2,5-Diaziridinyl-3,6-bis(dimethylamino)-1,4-benzoquinone]
Lymphoid leukemia L1210 [2]; [7]
  OD (optimum dose): 1.5 mg/kg/injection
Lymphoid leukemia L1210 [2]; IP L1210, Day 1 only, at OD
  ILS (percentage increase in life span): 21% and 15%
Lymphoid leukemia L1210 [2]; [8]
  OD (optimum dose): 3.0 mg/kg/injection
Lymphoid leukemia L1210 [2]; IP L1210, Q4D(1,5,9), at OD
  ILS (percentage increase in life span): 120% and 73%
  animals alive per 6 test animals on day of termination: 1
Lymphoid leukemia L1210 [2]
  ILS (%) IP L1210: 120%
  survivors (number in parentheses) IP L1210: 1
[3]
  OD (optimum dose): 1.0 mg/kg/injection and 0.5 mg/kg/injection
  ILS (percentage increase in life span): 74% and 37%
B16 melanocarcinoma
  OD (optimum dose): 0.2 mg/kg/injection
  ILS (percentage increase in life span): 16% and 12%
Lymphoid leukemia L1210 [4]
  antitumor activity: most active; also recorded: significant activity
  ILS (%) IC L1210: 72%
Lymphoid leukemia L1210 [4]; IC L1210, Q4D(1,5,9)
  OD (optimum dose): 3.0 mg/kg/injection
Lymphoid leukemia L1210 [4]; IC L1210, Q4D(1,5,9), at OD
  ILS (percentage increase in life span): 72% and 56%
ependymoblastoma
  antitumor activity: among the most active materials
  OD (optimum dose): 1.0 mg/kg/injection and 0.5 mg/kg/injection
  ILS (percentage increase in life span): 215% and 190%
  animals alive per 6 test animals on day of termination: 5 and 4
  survivors (number in parentheses) EM: 5
[5]
  solubility: increases the solubility greatly
[5]; [9]
  solubility: 10000 µg/mL (≈ 36200 µM)

## O=C1C(N2CCOCC2)=C(N2CC2)C(=O)C(N2CCOCC2)=C1N1CC1 [Compound 46, 2,5-Diaziridinyl-3,6-dimorpholino-1,4-benzoquinone]
Lymphoid leukemia L1210 [2]; [8]
  OD (optimum dose): 6.0 mg/kg/injection
Lymphoid leukemia L1210 [2]; IP L1210, Q4D(1,5,9), at OD
  T - C (average weight change of test group minus control): -2.6 grams
[3]
  OD (optimum dose): 0.5 mg/kg/injection and 0.7 mg/kg/injection
  ILS (percentage increase in life span): 52% and 48%
B16 melanocarcinoma
  ILS (percentage increase in life span): 24% and 17%
ependymoblastoma
  ILS (percentage increase in life span): 134% and 82%
[5]; [9]
  solubility: < 100 µg/mL
[6]
  log P: 0.52

## O=C1C(Cl)=C(Cl)C(=O)C(Cl)=C1Cl [chloranil, tetrachlorobenzoquinone]
Lymphoid leukemia L1210 [1]
  antitumor activity, prior testing: inactive

## O=C1C(N2CC2)=C(N2CC2)C(=O)C(N2CC2)=C1N1CC1 [tetraaziridinyl derivative]
Lymphoid leukemia L1210 [1]; L1210 leukemia system, earlier evaluation
  ILS: 39%
